Measurements reported in ChEMBL document CHEMBL2074549, “Regulation of 2-acetylaminofluorene-and 3-methylcholanthrene--mediated induction of multidrug resistance and cytochrome P450IA gene family expression in primary hepatocyte cultures and rat liver” (Mol Carcinog, 1991).

Tests used:
[1] = target: Multidrug resistance protein 1a (Rattus norvegicus) (UniProt Q6PSM0); assay: TP_TRANSPORTER: Western blot, primary hepatocytes; format: functional, cell-based; conditions: Hepatocyte
[2] = target: ATP-dependent translocase ABCB1 (Rattus norvegicus, UniProt P43245); assay: TP_TRANSPORTER: Northern blot from primary hepatocytes; format: functional, Hepatocyte
Sequence of ATP-dependent translocase ABCB1 (P43245 whole entry): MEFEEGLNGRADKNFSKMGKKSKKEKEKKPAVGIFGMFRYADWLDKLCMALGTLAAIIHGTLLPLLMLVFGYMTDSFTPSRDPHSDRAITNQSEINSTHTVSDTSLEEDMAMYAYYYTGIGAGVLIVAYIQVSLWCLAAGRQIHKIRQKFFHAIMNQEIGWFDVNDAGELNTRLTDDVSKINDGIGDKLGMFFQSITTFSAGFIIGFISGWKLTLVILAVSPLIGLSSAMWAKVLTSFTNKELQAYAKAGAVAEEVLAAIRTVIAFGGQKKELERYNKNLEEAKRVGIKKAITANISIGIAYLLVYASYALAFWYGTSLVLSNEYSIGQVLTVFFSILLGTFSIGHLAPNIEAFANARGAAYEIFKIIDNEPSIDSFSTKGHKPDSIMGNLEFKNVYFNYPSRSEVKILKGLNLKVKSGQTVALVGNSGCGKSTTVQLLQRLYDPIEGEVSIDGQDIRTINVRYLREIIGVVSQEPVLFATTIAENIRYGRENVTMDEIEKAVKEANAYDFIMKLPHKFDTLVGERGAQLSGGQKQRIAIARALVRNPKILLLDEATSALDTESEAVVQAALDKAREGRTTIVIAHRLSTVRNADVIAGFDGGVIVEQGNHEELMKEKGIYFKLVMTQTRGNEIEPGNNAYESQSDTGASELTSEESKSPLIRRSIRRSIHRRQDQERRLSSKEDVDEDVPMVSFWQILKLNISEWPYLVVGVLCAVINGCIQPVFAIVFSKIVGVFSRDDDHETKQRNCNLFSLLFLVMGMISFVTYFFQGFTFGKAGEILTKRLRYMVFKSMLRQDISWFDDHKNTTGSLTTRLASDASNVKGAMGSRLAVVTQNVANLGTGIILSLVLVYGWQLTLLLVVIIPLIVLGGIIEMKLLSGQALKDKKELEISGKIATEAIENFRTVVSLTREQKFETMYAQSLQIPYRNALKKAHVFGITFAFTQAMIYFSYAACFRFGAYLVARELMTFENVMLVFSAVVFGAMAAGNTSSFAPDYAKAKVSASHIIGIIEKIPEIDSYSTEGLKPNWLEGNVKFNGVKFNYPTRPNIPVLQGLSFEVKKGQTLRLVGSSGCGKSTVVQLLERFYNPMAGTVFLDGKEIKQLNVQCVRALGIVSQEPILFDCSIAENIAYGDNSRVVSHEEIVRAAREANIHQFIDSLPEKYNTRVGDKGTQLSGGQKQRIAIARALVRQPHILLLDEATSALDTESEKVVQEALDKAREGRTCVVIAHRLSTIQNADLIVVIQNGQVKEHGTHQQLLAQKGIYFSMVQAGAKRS

Sequence of Multidrug resistance protein 1a (Rattus norvegicus) (Q6PSM0 as listed by the source): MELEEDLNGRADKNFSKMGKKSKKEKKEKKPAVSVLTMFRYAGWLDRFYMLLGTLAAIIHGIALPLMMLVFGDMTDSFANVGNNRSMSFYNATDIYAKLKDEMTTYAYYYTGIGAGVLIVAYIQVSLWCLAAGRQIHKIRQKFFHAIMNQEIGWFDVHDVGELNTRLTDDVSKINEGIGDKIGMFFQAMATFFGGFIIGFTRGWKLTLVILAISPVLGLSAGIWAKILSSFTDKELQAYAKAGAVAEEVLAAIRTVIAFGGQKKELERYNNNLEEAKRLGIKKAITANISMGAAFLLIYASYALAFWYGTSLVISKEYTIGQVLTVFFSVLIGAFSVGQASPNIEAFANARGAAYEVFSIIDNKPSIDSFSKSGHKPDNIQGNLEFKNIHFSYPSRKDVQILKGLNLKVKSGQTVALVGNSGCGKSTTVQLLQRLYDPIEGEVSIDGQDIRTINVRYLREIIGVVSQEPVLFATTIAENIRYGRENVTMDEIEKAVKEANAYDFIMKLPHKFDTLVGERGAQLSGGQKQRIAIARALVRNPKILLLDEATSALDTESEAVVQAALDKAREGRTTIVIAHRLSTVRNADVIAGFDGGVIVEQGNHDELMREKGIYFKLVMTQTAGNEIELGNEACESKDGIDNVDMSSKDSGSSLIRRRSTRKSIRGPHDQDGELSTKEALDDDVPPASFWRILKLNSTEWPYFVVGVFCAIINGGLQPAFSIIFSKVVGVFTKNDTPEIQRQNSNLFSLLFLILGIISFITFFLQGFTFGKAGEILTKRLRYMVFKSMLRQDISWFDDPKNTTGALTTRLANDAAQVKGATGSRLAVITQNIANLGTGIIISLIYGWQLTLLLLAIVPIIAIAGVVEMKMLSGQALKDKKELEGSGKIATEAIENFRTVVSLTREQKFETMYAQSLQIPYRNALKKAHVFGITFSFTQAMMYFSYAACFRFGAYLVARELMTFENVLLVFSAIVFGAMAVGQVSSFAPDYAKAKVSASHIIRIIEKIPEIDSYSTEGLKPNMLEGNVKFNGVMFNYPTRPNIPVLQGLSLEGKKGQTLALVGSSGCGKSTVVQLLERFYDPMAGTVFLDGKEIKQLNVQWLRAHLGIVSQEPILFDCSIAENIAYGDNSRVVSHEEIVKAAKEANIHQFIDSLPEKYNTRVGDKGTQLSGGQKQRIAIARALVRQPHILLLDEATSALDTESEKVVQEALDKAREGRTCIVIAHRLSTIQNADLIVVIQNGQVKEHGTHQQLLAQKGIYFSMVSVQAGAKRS

| Structure (SMILES) | Activity [1] | Activity [2] |
| --- | --- | --- |
| CC(=O)Nc1ccc2c(c1)Cc1ccccc1-2 | inducer [+] | – |
| Cc1ccc2cc3c(ccc4ccccc43)c3c2c1CC3 [3-METHYLCHOLANTHRENE] | inducer [+] | inducer [+] |
